In a flash point compilation (Sun et al. 2020) one finds flash point data, which are given here for 110 molecules.

Assay in data set [1]: not given
This is another data set of the same source.

Assay in data set [2]: not given
This is another data set of the same source.

Each structure is given as a SMILES string.

Molecule `CC(Cl)(Cl)Cl` [1,1,1-trichloroethane] came in with a flash point of -1 °C.

Regarding `ClCC(Cl)Cl` [1,1,2-trichloroethane], the flash point worked out at 32 °C.

`c1ccc2c(c1)CCCC2` [1,2,3,4-tetrahydronaphthalene]: the flash point worked out at 77 °C.

`Cc1ccc(C)c(C)c1` [1,2,4-trimethylbenzene] registered a flash point of 44 °C.

On to `O=C1CCCCC1=O` [1,2-cyclohexanedione], for which the flash point is 84 °C.

Take `COCCOC` [1,2-dimethoxyethane]: the flash point in data set [1] was -2 °C; in data set [2], 0.00 °C.

Molecule `NCCN` [1,2-ethanediamine] came in with a flash point of 34 °C.

`C=C=C` [1,2-propadiene] came in with a flash point of -101 °C.

`C1=CCC=C1` [1,3-cyclopentadiene] returned a flash point of 25 °C.

`CCc1ccc(CC)cc1` [1,4-diethylbenzene]: the flash point was found to be 56 °C.

In turn, `OCCCCCCO` [1,6-hexanediol] yielded a flash point of 101 °C.

Molecule `CC(O)CN` (centres undefined) [1-amino-2-propanol] returned a flash point of 77 °C.

Consider `CCCCCCCBr` [1-bromoheptane], for which the flash point amounted to 60 °C.

`CCCCCCCCBr` [1-bromooctane] gave a flash point of 78 °C.

Molecule `CCCCCCCCCCN` [1-decanamine] registered a flash point of 86 °C.

Consider `CCC1(C)CCCC1` [1-ethyl-1-methylcyclopentane], for which the flash point is 6 °C.

In the case of `CCN1CCCCC1` [1-ethylpiperidine], the flash point came to 18 °C.

In the case of `CCCCCCCS` [1-heptanethiol], the flash point was determined as 41 °C.

Regarding `CCCCCCCO` [1-heptanol], the flash point came to 71 °C.

As to `Cc1cccc(I)c1` [1-iodo-3-methylbenzene], the flash point was 82 °C.

Consider `CCCCI` [1-iodobutane], for which the flash point was found to be 33 °C.

Take `CCCCCI` [1-iodopentane]: the flash point worked out at 43 °C.

`CCCCCCCCCO` [1-nonanol] registered a flash point of 98 °C.

In turn, `CCCC(=O)c1ccccc1` [1-phenyl-1-butanone] showed a flash point of 88 °C.

Consider `CCCS` [1-propanethiol], for which the flash point was -21 °C.

The molecule `CC(C)(C)CO` [2,2-dimethyl-1-propanol] registered a flash point of 36 °C.

Molecule `CC(=O)C(C)=O` [2,3-butanedione] gave a flash point of 6 °C.

For the molecule `OCC(Cl)CCl` (centres undefined) [2,3-dichloro-1-propanol], the flash point turned out to be 93 °C.

Molecule `C1=COCC1` [2,3-dihydrofuran] showed a flash point of -24 °C.

`C=C(C)C(=C)C` [2,3-dimethyl-1,3-butadiene] returned a flash point of -22 °C.

For the molecule `C=C(C)C(C)C` [2,3-dimethyl-1-butene], the flash point was -18 °C.

Take `CCC(C)C(C)C` (centres undefined) [2,3-dimethylpentane]: the flash point is -6 °C.

Turning to `Cc1ccc(O)c(C)c1` [2,4-dimethylphenol], the flash point was determined as 94 °C.

The molecule `Cc1ccnc(C)c1` [2,4-dimethylpyridine] came in with a flash point of 37 °C.

`Cc1ccc(C)c(O)c1` [2,5-dimethylphenol] had a flash point of 95 °C.

`CC(=O)CCC(C)=O` [2,5-hexanedione] gave a flash point of 79 °C.

`Cc1cccc(C)c1O` [2,6-dimethylphenol] registered a flash point of 73 °C.

For the molecule `CC(C)Br` [2-bromopropane], the flash point is 1 °C.

For `CCC(C)=O` [2-butanone], the flash point is -9 °C.

For `CCCCOCCOC(C)=O` [2-butoxyethyl acetate], the flash point was 71 °C.

Molecule `CC1=CC2C(CC1)C2(C)C` (centres undefined) [2-carene] came in with a flash point of 38 °C.

Regarding `CC(Cl)CO` (centres undefined) [2-chloro-1-propanol], the flash point was 52 °C.

As to `Cc1ccccc1Cl` [2-chlorotoluene], the flash point came out at 43 °C.

Consider `CCCCC(CC)CN` (centres undefined) [2-ethyl-1-hexanamine], for which the flash point was determined as 50 °C.

`CCCCC(CC)CO` (centres undefined) [2-ethyl-1-hexanol] came in with a flash point of 77 °C.

Take `CCC(CC)C(=O)O` [2-ethylbutyric acid]: the flash point came out at 87 °C.

`CC=CCCC` [2-hexene] showed a flash point of -21 °C.

Regarding `OCCS` [2-mercaptoethanol], the flash point was found to be 73 °C.

As to `COCCO` [2-methoxyethanol], the flash point in data set [1] worked out at 38 °C; in data set [2], 42.00 °C.

`C=CC(=C)C` [2-methyl-1,3-butadiene] had a flash point of -48 °C.

Consider `CCC(C)CS` (centres undefined) [2-methyl-1-butanethiol], for which the flash point was determined as 19 °C.

Turning to `C=C(C)CCCCC` [2-methyl-1-heptene], the flash point was 10 °C.

For the molecule `C=C(C)CCC` [2-methyl-1-pentene], the flash point is -26 °C.

`CC(C)CO` [2-methyl-1-propanol]: the flash point came to 27 °C.

With `CCCCC=C(C)C` [2-methyl-2-heptene], the flash point came out at 8 °C.

In turn, `CCC=C(C)C` [2-methyl-2-pentene] returned a flash point of -23 °C.

For the molecule `C=C(C)CO` [2-methyl-2-propen-1-ol], the flash point came to 33 °C.

As for `C=C(C)C=O` [2-methyl-2-propenal], the flash point is -15 °C.

For the molecule `CCC(O)C(C)C` (centres undefined) [2-methyl-3-pentanol], the flash point is 46 °C.

The molecule `CC=CCCCCC` [2-octene] showed a flash point of 14 °C.

Consider `CCCC(C)S` (centres undefined) [2-pentanethiol], for which the flash point is 9 °C.

Take `OCCc1ccccc1` [2-phenylethanol]: the flash point is 102 °C.

`Cc1ccccn1` [2-picoline] yielded a flash point of 28 °C.

Consider `C=CC(=O)OCCCC` [2-propenoic acid, butyl ester], for which the flash point came out at 37 °C.

`Cc1ccc(O)c(C(C)(C)C)c1` [2-t-butyl-4-methylphenol] returned a flash point of 100 °C.

`Cc1cccc(C(C)(C)C)c1O` [2-t-butyl-6-methylphenol]: the flash point came out at 107 °C.

For the molecule `C=CCCO` [3-buten-1-ol], the flash point was determined as 33 °C.

Molecule `C=CC(C)O` (centres undefined) [3-buten-2-ol] had a flash point of 20 °C.

For the molecule `SCCCCl` [3-chloro-1-propanethiol], the flash point is 43 °C.

In the case of `OCCCCl` [3-chloro-1-propanol], the flash point turned out to be 73 °C.

Molecule `C=C(C)CCl` [3-chloro-2-methyl-1-propene] came in with a flash point of -12 °C.

For `Cc1cccc(Cl)c1` [3-chlorotoluene], the flash point amounted to 50 °C.

Turning to `CCCC(CC)CC` [3-ethylhexane], the flash point worked out at 6 °C.

Consider `CCCC(=O)CC` [3-hexanone], for which the flash point worked out at 35 °C.

The molecule `N#CCCO` [3-hydroxypropanenitrile] showed a flash point of 129 °C.

As to `C=CC(C)=CC` [3-methyl-1,3-pentadiene], the flash point was -28 °C.

Take `CCC(C)C(C)O` (centres undefined) [3-methyl-2-pentanol]: the flash point was determined as 40 °C.

As to `C=Cc1cccc(C)c1` [3-methylstyrene], the flash point turned out to be 51 °C.

`CCCCCC(O)CC` (centres undefined) [3-octanol] showed a flash point of 65 °C.

`CCCCCC(=O)CC` [3-octanone] displayed a flash point of 53 °C.

Take `CCOC(=O)CC(C)=O` [3-oxobutanoic acid ethyl ester]: the flash point amounted to 70 °C.

Molecule `CCC(O)CC` [3-pentanol] came in with a flash point of 34 °C.

Turning to `C=CCCBr` [4-bromo-1-butene], the flash point came to 9 °C.

`Brc1ccc(-c2ccccc2)cc1` [4-bromobiphenyl]: the flash point came out at 144 °C.

On to `CCc1ccc(O)cc1` [4-ethylphenol], for which the flash point was 104 °C.

For the molecule `CC(=O)CC(C)C` [4-methyl-2-pentanone], the flash point came out at 14 °C.

The molecule `Cc1ccc(N)cc1` [4-methylaniline] returned a flash point of 86 °C.

The molecule `CC1CCC(O)CC1` (centres undefined) [4-methylcyclohexanol] returned a flash point of 70 °C.

For the molecule `CCCCCC(C)CCC` (centres undefined) [4-methylnonane], the flash point was determined as 38 °C.

For the molecule `Cc1ccncc1` [4-methylpyridine], the flash point stood at 37 °C.

`C=Cc1ccc(C)cc1` [4-methylstyrene]: the flash point stood at 45 °C.

For `Cc1ccncc1` [4-picoline], the flash point came to 40 °C.

Consider `CCCCC=CCCCC` [5-decene], for which the flash point turned out to be 46 °C.

`CCCCCC(=O)CCCCC` [6-undecanone] came in with a flash point of 88 °C.

`CN(C)CCCN` [N,N-dimethyl-1,3-propanediamine]: the flash point came to 35 °C.

`CN(C)CC1CCCCC1` [N,N-dimethylcyclohexanemethylamine] had a flash point of 48 °C.

As to `CCCCNC(C)=O` [N-butylacetamide], the flash point stood at 116 °C.

As to `CCNC(C)=O` [N-ethylacetamide], the flash point was determined as 110 °C.

As to `CNC(C)C` [N-methyl-2-propanamine], the flash point is -31 °C.

`CNc1ccccc1` [N-methylaniline] showed a flash point of 80 °C.

As to `CCCCNC` [N-methylbutylamine], the flash point came to 1 °C.

Take `CC(=O)SC(C)(C)C` [S-t-butyl thioacetate]: the flash point came to 33 °C.

Molecule `CC(=O)OC(C)(C)C` [acetic acid, 1,1-dimethylethyl ester] registered a flash point of 16 °C.

In turn, `CC=Cc1ccc(OC)cc1` [anethole] returned a flash point of 90 °C.

Consider `Sc1ccccc1` [benzenethiol], for which the flash point stood at 50 °C.

In turn, `N#Cc1ccccc1` [benzonitrile] gave a flash point of 75 °C.

Take `CSCc1ccccc1` [benzyl methyl sulfide]: the flash point amounted to 73 °C.

In the case of `CCCCCCCCCCCCCCCCC` [heptadecane], the figures for the flash point in data set [1] and in data set [2] were 148 °C and 149.00 °C, respectively.

Take `CCCCC` [pentane]: the flash point in data set [1] is -40 °C; in data set [2] it was -49.00 °C.

As for `CCCCCCCCCCCc1ccccc1` [undecylbenzene], the flash point in data set [1] is 144 °C.
